Test results taken from patent US12246081B2, “Deodorant compositions” (Conopco, Inc., priority 2017, dated 2025).

Test system: S. hominis B10 C-S β lyase
Test: Transformation of Cys-3M3SH to 3M3SH by purified S. hominis B10 C-S β lyase
Type: biochemical, Staphylococcus hominis
Conditions: for % inhibition: 2 mM Cys-3M3SH, 35° C. for 24 hours, relative to control without compound; for susceptibility of S. hominis C-S β-lyase to inhibition by classical inhibitors: qualitative statement, no concentration given
Description: The compounds identified by present invention represent a new class of deodorant actives that can be screened by the method disclosed herein. The method uses an odour-generating C-S β-lyase, in particular S. hominis B10 C-S β-lyase. In accordance with the procedure detailed in Example 1, the medium of the screening method comprises a 20 millimolar concentration of the compound to be screened. The medium further comprises S. hominis C-S β-lyase enzyme and 2 millimolar Cys-3M3SH. Following an incubation at 35° C. for a period of 24 hours, the reduction in 3M3SH released by S. hominis C-S β-lyase from Cys-3M3SH is measured. Herein, the inhibition of 3M3SH level is relative to a control without any compound being screened. In preferred embodiments, following the procedure detailed in Example 1, the medium comprises a 10 millimolar concentration of compound to be screened. In further preferred embodiments, the concentration of the compound to be screened can be 5 millimolar, preferably 2 millimolar, more preferably 1 millimolar, most preferably 0.5 millimolar.
The deodorant actives affecting S. hominis C-S β lyase are identified by using the following procedure. The Cys-3M3SH used in the procedure may be obtained using a method described in Chem. Biodivers., 2, 2005, 705-716. The purified S. hominis B10 C-S β lyase was prepared by cloning the gene encoding this enzyme into Escherichia coli using methodology known in the art. Recombinant S. hominis B10 C-S β-lyase was then expressed in E. coli and purified by immobilised metal ion affinity chromatography. M9 salts are mixtures of 6 g/L Na2HPO4, 3 g/L KH2PO4, 0.5 g/L NaCl, adjusted to pH 7.0 with NaOH.
Glass reaction tubes were set up, each containing 2 mM Cys-3M3SH (dissolved in M9 salts), 50 μM pyridoxal phosphate, purified S. hominis B10 C-S β lyase to a final concentration of 10 μg/ml, and M9 salts (or, where appropriate, a test material dissolved in M9 salts at, for example, 20 mM) to adjust the volume to 500 μl. Enzyme only (C-S beta-lyase) and substrate only (Cys-3M3SH) reactions were also included in each experiment. The reactions were incubated with shaking at 35° C. for 24 hours. To measure released 3M3SH, each reaction vial was first centrifuged at 13,000 rpm for 2 minutes. A volume of 0.095 ml labelling solution, consisting of 0.080 ml dH2O, 0.010 ml Tris (pH 8.0) and 0.005 ml 5,5′-dithiobis-(2-nitrobenzoic acid) (DTNB) stock solution (50 mM sodium acetate, 2 mM DTNB, dissolved in dH2O) was added to each well of a micro-titre plate. 0.005 ml of each reaction supernatant was added to the wells of the micro-titre plate, which was then incubated at room temperature for 5 minutes. Absorbance (A412) values, which correlate with the concentration of 3M3SH present, were recorded using a spectrophotometer. […] In these cases, a HPLC analysis was carried out according to the methodology described in J. Pharm. Biomed. Anal. 2008; 48:1375-80 and FEMS Microbiol. Lett., 263(16), 2015, fnv111.

[1] = material concentration = 2 millimolar
[2] = material concentration = 20 millimolar

| Molecule | % inhibition [1] | % inhibition [2] | susceptibility of S. hominis C-S β-lyase to inhibition by classical inhibitors | % inhibition (material concentration = 2 millimolar, listed as Cl) |
| --- | --- | --- | --- | --- |
| COc1cc(C2NC(C(=O)O)CS2)ccc1O (stereo not shown) [EX2, 2-(4-hydroxy-3-methoxyphenyl)-1,3-thiazolidine-4-carboxylic acid] | 32.9% | 100% |  |  |
| O=C(O)C1CSC(c2ccccc2O)N1 (stereo not shown) [EX12, 2-(2-hydroxy-pheny)-thiazolidine-4-carboxylic acid] | 46.5% | 100% |  |  |
| 2-(2-furyl)1,3-thiazolide-4-carboxylic acid [EX4] | 20.8% | 80.4% |  |  |
| O=C(O)C1CSC2(CCN(Cc3ccccc3)CC2)N1 (stereo not shown) [EX7, 8-benzyl-1-thia-4,8-diazaspiro[4.5]decane-3-carboxylic acid] | 11.9% | 87.8% |  |  |
| O=C(O)C1CSC(c2ccccc2)N1 (stereo not shown) [EX8, 2-phenylthiazolidine-4-carboxylic acid] | 12.3% | 95.9% |  |  |
| O=C(O)C1CSC2(CCC3(CC2)OCCO3)N1 (stereo not shown) [EX3, 1,4-dioxa-9-thia-12-azadispirol[4.2.4.2]tetradecane-11-carboxylic acid] | 32.3% | 80.6% |  |  |
| N[C@H]1CONC1=O [L-cycloserine, reference compound] |  |  | much less susceptible to inhibition |  |
| NOCC(=O)O [aminooxyacetic acid, reference compound] |  |  | much less susceptible to inhibition |  |
| 1-oxa-4-azaspiro[4.5]decane-3-carboxylic acid(N-CBz protected) [EX16] | 30.3% |  |  |  |
| CCCCCCC1NC(C(=O)O)CS1 (stereo not shown) [EX11, 2-hexyl-1,3-thiazolane-4-carboxylic acid] | 87.5% | 100% |  |  |
| COc1ccc(C2NC(C(=O)O)CS2)cc1 (stereo not shown) [EX10, 2-(4-methoxyphenyl)-1,3-thiazolidine-4-carboxylic acid] | 24.5% | 88.2% |  |  |
| COc1ccc(C2NC(C(=O)O)CS2)cc1O (stereo not shown) [EX1, 2-(3-hydroxy-4-methoxy-phenyl)-thiazolidine-4-carboxylic acid] | 34.9% | 100% |  |  |
| 1,8-Dioxa-4-azaspiro[4.5]decane-3-carboxylic acid(N-CBz protected) [EX17] | 54.1% |  |  |  |
| O=C(O)C1CSC2(CCCCC2)N1 (stereo not shown) [EX6, 1-thia-4-azaspiro[4.5]decane-3-carboxylic acid] | 90.9% | 100% |  |  |
| CCC(CC)C1NC(C(=O)O)CS1 (stereo not shown) [EX5, 2-(1-ethylpropyl)-4-thiazolidine-4-carboxylic acid] | 46% | 94.1% |  |  |
| N[C@H](COCc1ccccc1)C(=O)O [C1, O-benzyl-D-serine, reference compound] | 0% | 8.2% |  | does not present significant reduction of malodour |
| C=CCOc1ccc(C2NC(C(=O)O)CS2)cc1 (stereo not shown) [EX9, 2-(4-(allyloxy)phenyl)-1,3-thiazolidine-4-carboxylic acid] | 39.7% | 100% |  |  |
